# Laboratory results reported in US20240293379A1, “THERAPEUTIC AGENT FOR CANCER OF PATIENT WITH DECREASE IN RB1 FUNCTION USING MYT1 INHIBITOR AND CHEMOTHERAPEUTIC AGENT IN COMBINATION, AND TREATMENT METHOD THEREOF” (Chugai Seiyaku Kabushiki Kaisha, priority 2022, published 2024).
# How the values were obtained:
# Test in all cases: Pemetrexed cytotoxicity test upon suppression of expression of MYT1
# Assay type in all cases: cell-based
# NCI-H358 = NCI-H358 (RB1 wild-type)
# Procedure: (§1) Thereafter, the plates were shaken to transfect each siRNA at a final concentration of 10 nM.
# (§2) The −Log 2 value of fold change of IC50 and the maximum value of Bliss score, which are indexes of the combination effect, were calculated by comparing with the actually obtained cell survival curve, and described in Table 6 (see Non Patent Literature 9).
# A549 = A549 (RB1 wild-type)
# Procedure: as §1, §2
# NCI-H1155 = NCI-H1155 (RB1 mutant)
# Procedure: as §1, §2
# ChaGo-K-1 = ChaGo-K-1 (RB1 mutant)
# Procedure: as §1, §2
# NCI-H1666 = NCI-H1666 (RB1 wild-type)
# Procedure: as §1, §2
# NCI-H2110 = NCI-H2110 (RB1 mutant)
# Procedure: as §1, §2
# NCI-H1993 = NCI-H1993 (RB1 wild-type)
# Procedure: as §1, §2
# NCI-H596 = NCI-H596 (RB1 mutant)
# Procedure: as §1, §2
# PC-9 = PC-9 (RB1 wild-type)
# Procedure: as §1, §2
# NCI-H322 = NCI-H322 (RB1 wild-type)
# Procedure: as §1, §2
# NCI-H292 = NCI-H292 (RB1 wild-type)
# Procedure: as §1, §2
# ABC-1 = ABC-1 (RB1 wild-type)
# Procedure: as §1, §2
# NCI-H460 = NCI-H460 (RB1 wild-type)
# Procedure: as §1, §2
# EKVX = EKVX (RB1 wild-type)
# Procedure: as §1, §2
# NCI-H441 = NCI-H441 (RB1 wild-type)
# Procedure: as §1, §2
# NCI-H2122 = NCI-H2122 (RB1 wild-type)
# Procedure: as §1, §2
# LU65 = LU65 (RB1 mutant)
# Procedure: as §1, §2
# NCI-H661 = NCI-H661 (RB1 wild-type)
# Procedure: as §1, §2
# HOP-62 = HOP-62 (RB1 wild-type)
# Procedure: as §1, §2
# [1] = pemetrexed + MYT1 siRNA #16 10 nM
substance,measurement,setting,value
"MYT1 #16: ON-TARGETplus individual siRNA, Dharmacon product code J-005026-16, nucleotide sequence SEQ ID No: 4 (GGACCUAAGUGACAUCAAC; chemistry not fully specified)","Cytotoxic activity of siRNA alone, MYT1 #16","NCI-H358; 10 nM, no pemetrexed",0.021%
same,"Bliss score maximum value, MYT1 #16",NCI-H358; [1],12.322
same,"HSA score maximum value, MYT1 #16",NCI-H358; [1],12.336
same,"Cytotoxic activity of siRNA alone, MYT1 #16","A549; 10 nM, no pemetrexed",−3.683%
same,"Bliss score maximum value, MYT1 #16",A549; [1],17.634
same,"HSA score maximum value, MYT1 #16",A549; [1],15.047
same,"Cytotoxic activity of siRNA alone, MYT1 #16","NCI-H1155; 10 nM, no pemetrexed",5.782%
same,"Bliss score maximum value, MYT1 #16",NCI-H1155; [1],77.287
same,"HSA score maximum value, MYT1 #16",NCI-H1155; [1],76.586
same,"Cytotoxic activity of siRNA alone, MYT1 #16","ChaGo-K-1; 10 nM, no pemetrexed",−1.049%
same,"Bliss score maximum value, MYT1 #16",ChaGo-K-1; [1],40.066
same,"HSA score maximum value, MYT1 #16",ChaGo-K-1; [1],39.075
same,"Cytotoxic activity of siRNA alone, MYT1 #16","NCI-H1666; 10 nM, no pemetrexed",−4.467%
same,"Bliss score maximum value, MYT1 #16",NCI-H1666; [1],8.127
same,"HSA score maximum value, MYT1 #16",NCI-H1666; [1],5.753
same,"Cytotoxic activity of siRNA alone, MYT1 #16","NCI-H2110; 10 nM, no pemetrexed",15.886%
same,"Bliss score maximum value, MYT1 #16",NCI-H2110; [1],24.584
same,"HSA score maximum value, MYT1 #16",NCI-H2110; [1],36.712
same,"Cytotoxic activity of siRNA alone, MYT1 #16","NCI-H1993; 10 nM, no pemetrexed",35.910%
same,"Bliss score maximum value, MYT1 #16",NCI-H1993; [1],5.736
same,"HSA score maximum value, MYT1 #16",NCI-H1993; [1],21.843
same,"Cytotoxic activity of siRNA alone, MYT1 #16","NCI-H596; 10 nM, no pemetrexed",13.549%
same,"Bliss score maximum value, MYT1 #16",NCI-H596; [1],56.598
same,"HSA score maximum value, MYT1 #16",NCI-H596; [1],67.277
same,"Cytotoxic activity of siRNA alone, MYT1 #16","PC-9; 10 nM, no pemetrexed",−5.180%
same,"Bliss score maximum value, MYT1 #16",PC-9; [1],35.148
same,"Cytotoxic activity of siRNA alone, MYT1 #16","NCI-H322; 10 nM, no pemetrexed",−10.363%
same,"Bliss score maximum value, MYT1 #16",NCI-H322; [1],24.679
same,"Cytotoxic activity of siRNA alone, MYT1 #16","NCI-H292; 10 nM, no pemetrexed",19.878%
same,"Bliss score maximum value, MYT1 #16",NCI-H292; [1],19.031
same,"HSA score maximum value, MYT1 #16",NCI-H292; [1],21.907
same,"Cytotoxic activity of siRNA alone, MYT1 #16","ABC-1; 10 nM, no pemetrexed",3.870%
same,"Bliss score maximum value, MYT1 #16",ABC-1; [1],21.970
same,"HSA score maximum value, MYT1 #16",ABC-1; [1],25.475
same,"Cytotoxic activity of siRNA alone, MYT1 #16","NCI-H460; 10 nM, no pemetrexed",−6.609%
same,"Bliss score maximum value, MYT1 #16",NCI-H460; [1],17.443
same,"HSA score maximum value, MYT1 #16",NCI-H460; [1],9.093
same,"Cytotoxic activity of siRNA alone, MYT1 #16","EKVX; 10 nM, no pemetrexed",−1.125%
same,"Bliss score maximum value, MYT1 #16",EKVX; [1],16.454
same,"HSA score maximum value, MYT1 #16",EKVX; [1],15.771
same,"Cytotoxic activity of siRNA alone, MYT1 #16","NCI-H441; 10 nM, no pemetrexed",12.986%
same,"Bliss score maximum value, MYT1 #16",NCI-H441; [1],21.600
same,"HSA score maximum value, MYT1 #16",NCI-H441; [1],30.794
same,"Cytotoxic activity of siRNA alone, MYT1 #16","NCI-H2122; 10 nM, no pemetrexed",11.825%
same,"Bliss score maximum value, MYT1 #16",NCI-H2122; [1],15.749
same,"HSA score maximum value, MYT1 #16",NCI-H2122; [1],20.659
same,"Cytotoxic activity of siRNA alone, MYT1 #16","LU65; 10 nM, no pemetrexed",8.109%
same,"Bliss score maximum value, MYT1 #16",LU65; [1],29.374
same,"HSA score maximum value, MYT1 #16",LU65; [1],34.405
same,"Cytotoxic activity of siRNA alone, MYT1 #16","NCI-H661; 10 nM, no pemetrexed",20.313%
same,"Bliss score maximum value, MYT1 #16",NCI-H661; [1],8.081
same,"HSA score maximum value, MYT1 #16",NCI-H661; [1],22.502
same,"Cytotoxic activity of siRNA alone, MYT1 #16","HOP-62; 10 nM, no pemetrexed",8.347%
same,"Bliss score maximum value, MYT1 #16",HOP-62; [1],20.165
same,"HSA score maximum value, MYT1 #16",HOP-62; [1],24.453
